Measurements taken from patent US9616081B2, “Antitumor agent including low-dose irinotecan hydrochloride hydrate” (TAIHO PHARMACEUTICAL CO., LTD., priority 2013, dated 2017).
Counter-ions that a name gives are not always drawn.

Key:
[1] = test system: human colon cancer cell line (KM20C); experiment: Reference Example: survival of mice intraperitoneally transplanted with KM20C, monotherapy; type: in vivo; conditions: i.v., weekly; for ILS (increase in life span): 6 weeks from Day 3; for Survival time (day) Mean ± SD: 6 weeks from Day 3, BALB/cA Jcl-nu mice
Method: Cultured cells (1×10^7 cells/mouse) of human colon cancer cell line (KM20C) were intraperitoneally transplanted into 5-6 weeks old BALB/cA Jcl-nu mice after birth, and the mice were assigned to each group so that the mean body weight of each group became equal. The date on which such grouping (n=10) was performed was taken as Day 0.
[…]. Starting the dug administration from Day 3, a 5-days' daily oral administration of the FTD/TPI combination drug with 2-days' rest was performed for 6 weeks, and CPT-11 was administered once in a week from the tail vein for 6 weeks.
As an index of the antitumor effect, the number of survivors of each group of mice and the survival time of each group was compared.

[2] = test system: human gastric cancer cell line (SC-2); experiment: Example 3: combined administration test, SC-2 tumor in mice (RTV, TGI); conditions: Day 1, 8, i.v., q.d.
[3] = dose of 111 mg/kg/day; cited from earlier work

SMILES: CCc1c2c(nc3ccc(OC(=O)N4CCC(N5CCCCC5)CC4)cc13)-c1cc3c(c(=O)n1C2)COC(=O)[C@]3(O)CC [CPT-11, irinotecan hydrochloride hydrate]
- ILS (increase in life span) ([1]; 80 mg/kg/day): 54.0%
- Survival time (day) Mean ± SD ([1]; 80 mg/kg/day): 61.6 ± 12.6 days
- ILS (increase in life span) ([1]; 100 mg/kg/day): 81.3%
- Survival time (day) Mean ± SD ([1]; 100 mg/kg/day): 72.5 ± 12.3 days
- TGI, tumor growth inhibition rate on Day 15 ([2]; 40 mg/kg/day): 64.6%
- TGI, tumor growth inhibition rate on Day 15 ([2]; 80 mg/kg/day): 79.4%
- death case reported [3]: death case
